Reference: PubChem BioAssay (NCI)
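Protocol summary: plate cells (96-well), add compound at 5 concentrations, incubate 48 h, interpolate endpoints linearly. Abbreviation: GI50, concentration required for 50% inhibition of growth. At the TGI there is no net growth.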

What was measured:
Assay in all cases: growth of human tumour cells (NCI), 48 h
LOX IMVI melanoma = tested on: LOX IMVI melanoma
HCC-2998 colon = tested on: HCC-2998 colon
OVCAR-8 ovarian = tested on: OVCAR-8 ovarian
U251 CNS = tested on: U251 CNS
NCI-H460 lung = tested on: NCI-H460 lung
BT-549 breast = tested on: BT-549 breast
SF-268 CNS = tested on: SF-268 CNS
T-47D breast = tested on: T-47D breast
SK-OV-3 ovarian = tested on: SK-OV-3 ovarian
IGROV1 ovarian = tested on: IGROV1 ovarian

| SMILES | GI50 (LOX IMVI melanoma) [µM] | TGI (LOX IMVI melanoma) [µM] | GI50 (HCC-2998 colon) [µM] | TGI (HCC-2998 colon) [µM] | GI50 (OVCAR-8 ovarian) [µM] | TGI (OVCAR-8 ovarian) [µM] | GI50 (U251 CNS) [µM] | TGI (U251 CNS) [µM] | GI50 (NCI-H460 lung) [µM] | TGI (NCI-H460 lung) [µM] | GI50 (BT-549 breast) [µM] | TGI (BT-549 breast) [µM] | GI50 (SF-268 CNS) [µM] | TGI (SF-268 CNS) [µM] | GI50 (T-47D breast) [µM] | TGI (T-47D breast) [µM] | GI50 (SK-OV-3 ovarian) [µM] | TGI (SK-OV-3 ovarian) [µM] | GI50 (IGROV1 ovarian) [µM] | TGI (IGROV1 ovarian) [µM] |
| --- | --- | --- | --- | --- | --- | --- | --- | --- | --- | --- | --- | --- | --- | --- | --- | --- | --- | --- | --- | --- |
| CNC(=O)c1cc(Oc2ccc3nc(NC(=O)Nc4cc(C(F)(F)F)cc(C(F)(F)F)c4)sc3c2)ccn1 | 1.21 | 2.53 | 1.33 | 3.23 | 1.33 | 2.69 | 1.02 | 2.2 | 1.23 | 2.85 | 1.34 | 3.07 | 1.27 | 2.86 | 0.479 | 2.3 | 1.43 | 3.18 | 1.25 | 3.16 |
| CC/C(=C(/CC)c1ccc(O)cc1)c1ccc(O)cc1 | 5.75 | 19.4 | 10.7 | 23.3 | 7.9 | 37.1 | 4.91 | 18.2 | 4.05 | 15.2 | 6.16 | 21.5 | 5.5 | 20.8 | 6.85 | 47 | 3.63 | 13 | 12.4 | 52.3 |
| Cn1cc(-c2ccc3nnc(C(F)(F)c4ccc5ncccc5c4)n3n2)cn1 | 55.5 | > 100 | > 100 | > 100 | 66.1 | > 100 | 58.4 | > 100 | 59.6 | > 100 | 86.8 | > 100 | 50.7 | > 100 | 40.8 | > 100 | > 86.4 | > 100 | 53.8 | > 100 |
| COc1ccc(Nc2ncccc2C(=O)NCc2cn(Cc3cccc(Oc4ccccc4)c3)nn2)c(OC)c1 | 2.54 | > 100 | 2.64 | > 29 | 3.81 | > 100 | 3.19 | > 100 | 3.19 | > 100 | 2.99 | > 100 | 3.34 | > 100 | 39.4 | > 100 | 2.13 | > 30.1 | 5.18 | > 100 |
| Nc1nc(-c2ccc3ccccc3c2)cc(-c2cc(-c3ccc4ccccc4c3)nc(N)n2)n1 | – | > 100 | – | > 100 | – | > 100 | – | > 100 | – | > 100 | – | > 100 | – | > 100 | – | > 100 | – | > 100 | – | > 100 |
| COc1ccc2c(c1)C(=O)c1c-2c(OCCN2CCCCC2)nc2ccc(OC)cc12 | 0.42 | 1.73 | 1.23 | 9.24 | 0.601 | 4.67 | 0.513 | 1.79 | 0.286 | 1.1 | 8.26 | 23.3 | 0.461 | 9.46 | 3.44 | 25.8 | 2.02 | 16.4 | 0.708 | 6.58 |
| C=C(C)C1CCC2(C(=O)O)CCC3(C)C(CCC4C5(C)CCC(O)C(C)(C)C5CCC43C)C12 (stereo not given) | – | 52.8 | – | 24.7 | – | 20.7 | – | 22 | – | 39 | – | 10.9 | – | 28.7 | – | 35.5 | – | 34.2 | – | 28.7 |
| COC(=O)[C@H](C)[C@@H]1CC[C@](C)(CCC2=C(C)CCCC2(C)C)OO1 | – | > 25 | – | > 25 | – | > 25 | – | > 25 | – | > 25 | – | > 25 | – | > 25 | – | > 25 | – | > 25 | – | > 25 |
| Nc1nc(Cl)nc2c1ncn2C1OC(CO)C(O)C1O (stereo not given) | 15.2 | > 100 | > 21.9 | > 100 | 0.403 | > 100 | 13.2 | > 100 | 12.6 | > 100 | 16.8 | > 100 | 10.7 | > 100 | > 100 | > 100 | 7.5 | > 100 | > 100 | > 100 |
| [Au+].c1c[n-]cn1.c1ccc([PH+](c2ccccc2)c2ccccc2)cc1 | 4.03 | 15.2 | 13.8 | 30.5 | 9.28 | 37.1 | 3.77 | 26.2 | 15.3 | 59.9 | 3.29 | > 100 | 3.32 | 28.3 | 2.02 | 4.74 | 16.8 | 30.4 | 2.02 | 13.7 |
| CCN(CC)CC(O)c1cc(-c2ccc(Cl)cc2)nc2cc(Cl)ccc12 (stereo not given) | 1.24 | 2.51 | 1.67 | 3.1 | 1.96 | 4.12 | 1.75 | 3.34 | 1.64 | 3.17 | 4.75 | 14.8 | 2.69 | 8.06 | 2.53 | 7.01 | 3.44 | 12 | 0.518 | 2.47 |
